The text below walks through data of patent publication US12534457B2, “Heteroaryl derivative compounds, and uses thereof” (Voronoi Inc., priority 2021, dated 2026).

For the first experiment, the system named is Ba/F3 cells expressing EGFR Del19/C797S (EGFR DC). The experiment is described as follows: Proliferation inhibitory activity, Ba/F3 cells expressing EGFR Del19/C797S (CellTiter-Glo). The class given is cell-based. To be noted: 72 hours of compound treatment. The method in brief: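 Viability after 72 h of compound exposure was measured by luminescence (CellTiter-Glo) in Ba/F3 lines transduced with mutant EGFR. Final concentrations spanned 0.2 nM–5 μM over 12 threefold steps. Growth relative to untreated control gave GI50 values; each test was run three times.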
On the technique in general: ATP-based viability assays read luminescence as a measure of living cells.
Usually GI50 stands for the concentration at which growth is held to half of that of the control. Consider `COc1cc(N2CCC(N3CCCN(C)CC3)CC2)ccc1Nc1cc(N2OCC[C@@H]2c2cccc(F)c2F)ncn1` [Example 221], for which the 50% growth inhibitory concentration (GI50) was < 50 nM.

The same experiment, now with this note: Mus musculus, BaF3, 72 hours of compound treatment.
With `CN1CCN(c2c(-c3cnn(C)c3)cc(Nc3cc(N4OCC[C@@H]4c4ccccc4)ncn3)c3c2CCO3)CC1` [Example 162, (R)—N-(5-(1-methyl-1H-pyrazol-4-yl)-4-(4-methylpiperazin-1-yl)-2,3-dihydrobenzofuran-7-yl)-6-(3-phenylisoxazolidin-2-yl)pyrimidin-4-amine], the GI50 was < 50 nM.

Regarding `CCC(=O)Nc1cc(Nc2cc(N3OCC[C@@H]3c3cc(F)cc(F)c3)ncn2)c(OC)cc1N1CCC(N2CCN(C3CC3)CC2)CC1` [Example 161, (R)—N-(2-(4-(4-cyclopropylpiperazin-1-yl)piperidin-1-yl)-5-((6-(3-(3,5-difluorophenyl)isoxazolidin-2-yl)pyrimidin-4-yl)amino)-4-methoxyphenyl)propionamide], the GI50 was < 50 nM.

On to `COc1nc(N2CCN(C)CC2)c(-c2cnn(C)c2)cc1Nc1cc(N2OCC[C@@H]2c2cccc(F)c2F)ncn1` [Example 202, (R)-6-(3-(2,3-difluorophenyl)isoxazolidin-2-yl)-N-(2-methoxy-5-(1-methyl-1H-pyrazol-4-yl)-6-(4-methylpiperazin-1-yl)pyridin-3-yl)pyrimidin-4-amine], for which the GI50 was < 50 nM.

Consider `COc1cc(N2CCC(N3CCN(C)CC3)CC2)ccc1Nc1cc(N2OCC[C@@H]2c2ccccc2)nc(N)n1` [Example 111, (R)—N4-(2-methoxy-4-(4-(4-methylpiperazin-1-yl)piperidin-1-yl)phenyl)-6-(3-phenylisoxazolidin-2-yl)pyrimidin-2,4-diamine], for which the GI50 fell in the range of 50 to 500 nM.

Regarding `CN1CCN(c2ccc(Nc3cc(N4OCC[C@@H]4c4cc(F)cc(F)c4)ncn3)cc2)CC1` [Example 18, (R)-6-(3-(3,5-difluorophenyl)isoxazolidin-2-yl)-N-(4-(4-methylpiperazin-1-yl)phenyl)pyrimidin-4-amine], the GI50 lay within 50 to 500 nM.

Consider `COc1cc(N2CCC(N3CCN(C)C[C@H]3C)CC2)ccc1Nc1cc(N2OCC[C@@H]2c2cccc(F)c2F)ncn1` [Example 217, 6-((R)-3-(2,3-difluorophenyl)isoxazolidin-2-yl)-N-(4-(4-((R)-2,4-dimethylpiperazin-1-yl)piperidin-1-yl)-2-methoxyphenyl)pyrimidin-4-amine], for which the GI50 was < 50 nM.

Turning to `COc1cc(N2CCC(N3CCN(CCS(C)(=O)=O)CC3)CC2)ccc1Nc1cc(N2OCC[C@@H]2c2cccc(F)c2F)ncn1` [Example 237, (R)-6-(3-(2,3-difluorophenyl)isoxazolidin-2-yl)-N-(2-methoxy-4-(4-(4-(2-(methylsulfonyl)ethyl)piperazin-1-yl)piperidin-1-yl)phenyl)pyrimidin-4-amine], the GI50 was < 50 nM.

Turning to `COc1cc(N2CCOCC2)ccc1Nc1cc(N2OCC[C@@H]2c2ccccc2)ncn1` [Example 110, (R)—N-(2-methoxy-4-morpholinophenyl)-6-(3-phenylisoxazolidin-2-yl)pyrimidin-4-amine], the GI50 is < 50 nM.

`COc1cc(N2CCC(N3CCN(C)CC3)CC2)ccc1Nc1cc(N2OCC[C@@H]2c2cccc(N(C)C)c2)ncn1` [Example 131, (R)-6-(3-(3-(dimethylamino)phenyl)isoxazolidin-2-yl)-N-(2-methoxy-4-(4-(4-methylpiperazin-1-yl)piperidin-1-yl)phenyl)pyrimidin-4-amine]: the GI50 was 50 to 500 nM.

Consider `CN1CCN(c2ccc(Nc3cc(N4OCC[C@@H]4Cc4ccccc4)ncn3)cc2)CC1` [Example 3, (S)-6-(3-benzylisoxazolidin-2-yl)-N-(4-(4-methylpiperazin-1-yl)phenyl)pyrimidin-4-amine], for which the GI50 was < 50 nM.

For `COc1cc(N2CCC(N3CCOCC3)CC2)ccc1Nc1cc(N2OCC[C@@H]2c2ccccc2)ncn1` [Example 120, (R)—N-(2-methoxy-4-(4-morpholinopiperidin-1-yl)phenyl)-6-(3-phenylisoxazolidin-2-yl)pyrimidin-4-amine], the GI50 was < 50 nM.

As to `COc1cc(N2CCC(N3CCN(C)[C@H](C)C3)CC2)ccc1Nc1cc(N2OCC[C@@H]2c2cccc(F)c2F)ncn1` [Example 213, 6-((R)-3-(2,3-difluorophenyl)isoxazolidin-2-yl)-N-(4-(4-((R)-3,4-dimethylpiperazin-1-yl)piperidin-1-yl)-2-methoxyphenyl)pyrimidin-4-amine], the GI50 was < 50 nM.

Regarding `COc1cc(N2CCC(N3CCN4CCCC4C3)CC2)c(NC(=O)CCCl)cc1Nc1cc(N2OCC[C@@H]2c2cc(F)cc(F)c2)ncn1` (stereo partly drawn) [Example 86, 3-chloro-N-(5-((6-((R)-3-(3,5-difluorophenyl)isoxazolidin-2-yl)pyrimidin-4-yl)amino)-2-(4-(hexahydropyrrolo[1,2-a]pyrazin-2 (1H)-yl)piperidin-1-yl)-4-methoxyphenyl)propanamide], the GI50 is < 50 nM.

As for `CN1CCN(C(=O)c2ccc(Nc3cc(N4OCC[C@@H]4c4ccccc4)ncn3)cc2)CC1` [Example 72, (R)-(4-methylpiperazin-1-yl) (4-((6-(3-phenylisoxazolidin-2-yl)pyrimidin-4-yl)amino)phenyl)methanone], the GI50 lay within 50 to 500 nM.

As to `CCN1[C@H](C)CN(C2CCN(c3ccc(Nc4cc(N5OCC[C@@H]5c5cccc(F)c5F)ncn4)c(OC)c3)CC2)C[C@@H]1C` [Example 215, 6-((R)-3-(2,3-difluorophenyl)isoxazolidin-2-yl)-N-(4-(4-((3S,5R)-4-ethyl-3,5-dimethylpiperazin-1-yl)piperidin-1-yl)-2-methoxyphenyl)pyrimidin-4-amine], the GI50 was < 50 nM.

`COc1cc(N2CCC(N3C[C@H]4C[C@@H]3CO4)CC2)ccc1Nc1cc(N2OCC[C@@H]2c2ccccc2)ncn1` [Example 97, N-(4-(4-((1R,4R)-2-oxa-5-azabicyclo[2.2.1]heptan-5-yl)piperidin-1-yl)-2-methoxyphenyl)-6-((R)-3-phenylisoxazolidin-2-yl)pyrimidin-4-amine]: the GI50 is < 50 nM.

As to `CN1CCN(c2cc(OCC(F)(F)F)c(Nc3cc(N4OCC[C@@H]4c4ccccc4)ncn3)cc2-c2cnn(C)c2)CC1` [Example 166, (R)—N-(5-(1-methyl-1H-pyrazol-4-yl)-4-(4-methylpiperazin-1-yl)-2-(2,2,2-trifluoroethoxy)phenyl)-6-(3-phenylisoxazolidin-2-yl)pyrimidin-4-amine], the GI50 was < 50 nM.

As for `C=CCN1CCN(C2CCN(c3ccc(Nc4cc(N5OCC[C@@H]5c5cccc(F)c5F)ncn4)c(OC)c3)CC2)CC1` [Example 206, (R)—N-(4-(4-(4-allylpiperazin-1-yl)piperidin-1-yl)-2-methoxyphenyl)-6-(3-(2,3-difluorophenyl)isoxazolidin-2-yl)pyrimidin-4-amine], the GI50 was < 50 nM.

As to `CN1CCC(n2cc(-c3ccc(Nc4cc(N5OCC[C@@H]5c5cc(F)cc(F)c5)ncn4)c4c3CCO4)cn2)CC1` [Example 160, (R)-6-(3-(3,5-difluorophenyl)isoxazolidin-2-yl)-N-(4-(1-(1-methylpiperidin-4-yl)-1H-pyrazol-4-yl)-2,3-dihydrobenzofuran-7-yl)pyrimidin-4-amine], the GI50 was in the range of 50 to 500 nM.

In the case of `CCc1cc(Nc2cc(N3OCC[C@@H]3c3ccc(F)cc3F)ncn2)c(OC)cc1N1CCC(N2CCN(C)CC2)CC1` [Example 93, (R)-6-(3-(2,4-difluorophenyl)isoxazolidin-2-yl)-N-(5-ethyl-2-methoxy-4-(4-(4-methylpiperazin-1-yl)piperidin-1-yl)phenyl)pyrimidin-4-amine], the GI50 was < 50 nM.

`COc1cc(N2CCC(N3CCC(N(C)C)CC3)CC2)ccc1Nc1cc(N2OCC[C@@H]2c2ccccc2)ncn1` [Example 115, (R)-1′-(3-methoxy-4-((6-(3-phenylisoxazolidin-2-yl)pyrimidin-4-yl)amino)phenyl)-N,N-dimethyl-[1,4′-bipiperidin]-4-amine]: the GI50 is < 50 nM.

`COc1cc(N2CCC(N3CCN(C)CC3)CC2)ccc1Nc1cc(N2OCC[C@@H]2c2ccc(F)cc2)ncn1` [Example 33, (R)-6-(3-(4-fluorophenyl)isoxazolidin-2-yl)-N-(2-methoxy-4-(4-(4-methylpiperazin-1-yl)piperidin-1-yl)phenyl)pyrimidin-4-amine]: the GI50 is < 50 nM.

For the compound `COc1cc(N2CCCN(C)CC2)ccc1Nc1cc(N2OCC[C@@H]2c2ccccc2)ncn1` [Example 67, (R)—N-(2-methoxy-4-(4-methyl-1,4-diazepan-1-yl)phenyl)-6-(3-phenylisoxazolidin-2-yl)pyrimidin-4-amine], the GI50 was < 50 nM.

Take `CN(C)C1CCN(c2ccc(Nc3cc(N4OCC[C@@H]4c4ccccc4)ncn3)nc2)CC1` [Example Compound 138, (R)-N-(5-(4-(dimethylamino)piperidin-1-yl)pyridin-2-yl)-6-(3-phenylisoxazolidin-2-yl)pyrimidin-4-amine]: the GI50 is < 50 nM.

On to `CN1CCN(c2ccc(Nc3cc(N4OCC[C@@H]4c4cncc(Cl)c4)ncn3)cc2)CC1` [Example 180, (R)-6-(3-(5-chloropyridin-3-yl)isoxazolidin-2-yl)-N-(4-(4-methylpiperazin-1-yl)phenyl)pyrimidin-4-amine], for which the GI50 was 50 to 500 nM.

Consider `CCc1cc(Nc2cc(N3OCC[C@@H]3c3cc(F)ccc3F)ncn2)c(OC)cc1N1CCC(N2CCN(C)CC2)CC1` [Example 94, (R)-6-(3-(2,5-difluorophenyl)isoxazolidin-2-yl)-N-(5-ethyl-2-methoxy-4-(4-(4-methylpiperazin-1-yl)piperidin-1-yl)phenyl)pyrimidin-4-amine], for which the 50% growth inhibitory concentration (GI50) was < 50 nM.

With `CCC(=O)Nc1cc(Nc2cc(N3OCC[C@@H]3c3cccs3)ncn2)c(OC)cc1N1CCC(N2CCN(C3CC3)CC2)CC1` [Example 163, (R)—N-(2-(4-(4-cyclopropylpiperazin-1-yl)piperidin-1-yl)-4-methoxy-5-((6-(3-(thiophene-2-yl)isoxazolidin-2-yl)pyrimidin-4-yl)amino)phenyl)propionamide], the GI50 is < 50 nM.
